What was measured:
[1] = target: T1, human TLR7 (Homo sapiens, UniProt Q9NYK1); assay: HEK293-Blue-hTLR-7 cells assay; type: cell-based; settings: HEK293-Blue-hTLR7 cells, R848 stimulation, 20 hrs, SEAP reporter; read-out: HEK/hTLR7 IC50
T1 construct: host or cells: HEK293 (HEK-Blue hTLR7)
T1 sequence (Q9NYK1 27-1049): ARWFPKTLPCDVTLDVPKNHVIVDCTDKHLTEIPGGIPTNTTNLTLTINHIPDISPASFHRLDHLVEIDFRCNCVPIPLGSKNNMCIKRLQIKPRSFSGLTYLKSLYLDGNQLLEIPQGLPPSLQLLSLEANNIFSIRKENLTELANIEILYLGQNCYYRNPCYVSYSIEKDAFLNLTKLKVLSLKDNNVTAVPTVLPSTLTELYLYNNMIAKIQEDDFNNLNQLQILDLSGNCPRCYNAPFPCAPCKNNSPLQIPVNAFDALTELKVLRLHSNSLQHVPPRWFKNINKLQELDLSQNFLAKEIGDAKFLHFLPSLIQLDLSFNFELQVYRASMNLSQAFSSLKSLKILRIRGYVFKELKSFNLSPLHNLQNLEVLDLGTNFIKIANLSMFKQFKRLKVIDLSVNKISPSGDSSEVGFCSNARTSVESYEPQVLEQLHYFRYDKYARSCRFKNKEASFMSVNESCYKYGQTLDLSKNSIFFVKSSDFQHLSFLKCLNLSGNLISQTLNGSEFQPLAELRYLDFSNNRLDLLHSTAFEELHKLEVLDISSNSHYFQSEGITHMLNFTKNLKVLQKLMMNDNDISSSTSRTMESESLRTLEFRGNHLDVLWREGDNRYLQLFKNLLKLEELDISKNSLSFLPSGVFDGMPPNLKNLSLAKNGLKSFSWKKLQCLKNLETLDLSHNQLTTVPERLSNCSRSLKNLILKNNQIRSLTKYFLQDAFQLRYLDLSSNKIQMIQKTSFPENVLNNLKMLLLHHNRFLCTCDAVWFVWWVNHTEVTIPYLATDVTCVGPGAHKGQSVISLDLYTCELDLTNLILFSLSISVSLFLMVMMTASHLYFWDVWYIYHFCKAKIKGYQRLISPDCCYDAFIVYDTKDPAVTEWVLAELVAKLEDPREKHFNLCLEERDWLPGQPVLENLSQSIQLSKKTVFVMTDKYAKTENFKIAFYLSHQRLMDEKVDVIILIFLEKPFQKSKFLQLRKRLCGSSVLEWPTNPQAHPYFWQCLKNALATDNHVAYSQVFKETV
Procedure: The following tests were carried out in order to determine the activity of the compounds of formula (I) and (Ia) in HEK293-Blue-hTLR-7/8/9 cells assay.
HEK293-Blue-hTLR-7 cells assay:
A stable HEK293-Blue-hTLR-7 cell line was purchased from InvivoGen (Cat. #: hkb-htlr7, San Diego, Calif., USA). These cells were originally designed for studying the stimulation of human TLR7 by monitoring the activation of NF-κB. A SEAP (secreted embryonic alkaline phosphatase) reporter gene was placed under the control of the […] minimal promoter fused to five NF-κB and AP-1-binding sites. The SEAP was induced by activating NF-κB and AP-1 via stimulating HEK-Blue hTLR7 cells with TLR7 ligands. Therefore, the reporter expression was declined by TLR7 antagonist under the stimulation of a ligand, such as R848 (Resiquimod), for incubation of 20 hrs. The cell culture supernatant SEAP reporter activity was determined using QUANTI-Blue™ kit (Cat. #: rep-qb1, Invivogen, San Diego, Calif., USA) at a wavelength of 640 nm, a detection medium that turns purple or blue in the presence of alkaline phosphatase.
Then 20 μL of the supernatant from each well was incubated with […] Quanti-blue substrate solution at 37° C. for 2 hrs and the absorbance was read at 620-655 nm using a spectrophotometer. The signaling pathway that TLR7 activation leads to downstream NF-κB activation has been widely accepted, and therefore similar reporter assay was modified for evaluating TLR7 antagonist.

[2] = target: T2, human TLR8 (Homo sapiens, UniProt Q9NR97); assay: HEK293-Blue-hTLR-8 cells assay
T2 sequence (Q9NR97 27-1041): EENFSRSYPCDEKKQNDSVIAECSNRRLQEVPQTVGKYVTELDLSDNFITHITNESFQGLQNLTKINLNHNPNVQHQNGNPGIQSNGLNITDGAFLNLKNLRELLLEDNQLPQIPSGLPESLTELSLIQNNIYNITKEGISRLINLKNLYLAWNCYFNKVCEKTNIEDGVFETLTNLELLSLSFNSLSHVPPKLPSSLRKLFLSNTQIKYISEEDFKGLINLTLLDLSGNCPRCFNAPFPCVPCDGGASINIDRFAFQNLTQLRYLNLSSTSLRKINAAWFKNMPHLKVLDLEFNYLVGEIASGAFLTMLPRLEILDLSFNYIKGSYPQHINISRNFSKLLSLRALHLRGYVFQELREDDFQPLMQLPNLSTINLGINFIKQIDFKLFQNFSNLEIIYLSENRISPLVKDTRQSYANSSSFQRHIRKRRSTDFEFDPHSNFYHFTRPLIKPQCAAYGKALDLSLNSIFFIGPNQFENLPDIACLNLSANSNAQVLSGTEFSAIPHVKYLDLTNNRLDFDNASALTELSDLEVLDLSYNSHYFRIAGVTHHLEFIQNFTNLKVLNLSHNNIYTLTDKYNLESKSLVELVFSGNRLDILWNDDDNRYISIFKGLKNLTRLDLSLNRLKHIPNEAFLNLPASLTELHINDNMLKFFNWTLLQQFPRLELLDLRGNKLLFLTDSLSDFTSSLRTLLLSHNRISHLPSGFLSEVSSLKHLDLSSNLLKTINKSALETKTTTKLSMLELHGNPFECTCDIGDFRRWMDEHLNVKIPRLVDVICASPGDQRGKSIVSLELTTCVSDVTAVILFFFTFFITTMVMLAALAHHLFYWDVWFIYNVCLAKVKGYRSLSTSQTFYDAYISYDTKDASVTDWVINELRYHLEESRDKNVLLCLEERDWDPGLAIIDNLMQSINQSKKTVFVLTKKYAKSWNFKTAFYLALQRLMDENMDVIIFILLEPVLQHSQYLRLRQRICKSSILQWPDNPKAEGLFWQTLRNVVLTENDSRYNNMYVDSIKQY
From the text: HEK293-Blue-hTLR-8 Cells Assay:
A stable HEK293-Blue-hTLR-8 cell line was purchased from InvivoGen (Cat. #: hkb-htlr8, San Diego, Calif., USA). These cells were originally designed for studying the stimulation of human TLR8 by monitoring the activation of NF-κB. A SEAP (secreted embryonic alkaline phosphatase) reporter gene was placed under the control of the IFN-β minimal promoter fused to five NF-κB and AP-1-binding sites. The SEAP was induced by activating NF-κB and AP-1 via stimulating HEK-Blue hTLR8 cells with TLR8 ligands. Therefore, the reporter expression was declined by TLR8 antagonist under the stimulation of a ligand, such as R848, for incubation of 20 hrs. The cell culture supernatant SEAP reporter activity was determined using QUANTI-Blue™ kit (Cat. #: rep-qb1, Invivogen, San Diego, Calif., USA) at a wavelength of 640 nm, a detection medium that turns purple or blue in the presence of alkaline phosphatase.

IC50 [1] [nM]	IC50 [2] [nM]	SMILES
26	58	C[C@@H]1CN(c2ccc(C#N)c3ncccc23)C[C@@H]2CN(CCc3ccc(N4CC5(CN(C)C5)C4)nc3)CCN21 [Example 22, 5-[(4R,9aS)-4-methyl-8-[2-[6-(6-methyl-2,6-diazaspiro[3.3]heptan-2-yl)-3-pyridyl]ethyl]-3,4,6,7,9,9a-hexahydro-1H-pyrazino[1,2-a]pyrazin-2-yl]quinoline-8-carbonitrile]
8	15	CO[C@H]1CN(c2ccc(CCN3CCN4[C@@H](C3)CN(c3ccc(C#N)c5ncccc35)C[C@H]4C)cn2)C[C@H]1N [Example 24, 5-[(4R,9aS)-8-[2-[6-[(3R,4S)-3-amino-4-methoxy-pyrrolidin-1-yl]-3-pyridyl]ethyl]-4-methyl-3,4,6,7,9,9a-hexahydro-1H-pyrazino[1,2-a]pyrazin-2-yl]quinoline-8-carbonitrile]
13	25	CO[C@H]1CN(c2ccc(CCN3CCN4[C@@H](C3)CN(c3ccc(C#N)c5ncccc35)C[C@H]4C)cn2)C[C@@H]1N [Example 25, 5-[(4R,9aS)-8-[2-[6-[(3S,4S)-3-amino-4-methoxy-pyrrolidin-1-yl]-3-pyridyl]ethyl]-4-methyl-3,4,6,7,9,9a-hexahydro-1H-pyrazino[1,2-a]pyrazin-2-yl]quinoline-8-carbonitrile]
18	8	CO[C@@H]1CN(c2ccc(CCN3CCN4[C@@H](C3)CN(c3ccc(C#N)c5ncccc35)C[C@H]4C)cc2)C[C@H]1N [Example 26, 5-[(4R,9aS)-8-[2-[4-[(3R,4R)-3-amino-4-methoxy-pyrrolidin-1-yl]phenyl]ethyl]-4-methyl-3,4,6,7,9,9a-hexahydro-1H-pyrazino[1,2-a]pyrazin-2-yl]quinoline-8-carbonitrile]
21	13	C[C@@H]1CN(c2ccc(C#N)c3ncccc23)C[C@@H]2CN(Cc3cccc(N4CCNCC4)n3)CCN21 [Example 27, 5-[(4R,9aS)-4-methyl-8-[(6-piperazin-1-yl-2-pyridyl)methyl]-3,4,6,7,9,9a-hexahydro-1H-pyrazino[1,2-a]pyrazin-2-yl]quinoline-8-carbonitrile]
12	29	C[C@@H]1CN(c2ccc(C#N)c3ncccc23)C[C@@H]2CN(CCc3ccc(N4CC5(CNCCO5)C4)cc3)CCN21 [Example 28, 5-[(4R,9aS)-4-methyl-8-[2-[4-(5-oxa-2,8-diazaspiro[3.5]nonan-2-yl)phenyl]ethyl]-3,4,6,7,9,9a-hexahydro-1H-pyrazino[1,2-a]pyrazin-2-yl]quinoline-8-carbonitrile]
16	21	C[C@@H]1CN(c2ccc(C#N)c3ncccc23)C[C@@H]2CN(c3nccc(N4CCNCC4)n3)CCN21 [Example 30, 5-[(4R,9aR)-4-methyl-8-(4-piperazin-1-ylpyrimidin-2-yl)-3,4,6,7,9,9a-hexahydro-1H-pyrazino[1,2-a]pyrazin-2-yl]quinoline-8-carbonitrile]
22	24	Cc1cc(N2CCN3[C@@H](C2)CN(c2ccc(C#N)c4ncccc24)C[C@H]3C)nc(N2CCNCC2)n1 [Example 31, 5-[(4R,9aR)-4-methyl-8-(6-methyl-2-piperazin-1-yl-pyrimidin-4-yl)-3,4,6,7,9,9a-hexahydro-1H-pyrazino[1,2-a]pyrazin-2-yl]quinoline-8-carbonitrile]
16	11	C[C@@H]1CN(c2ccc(C#N)c3ncccc23)C[C@@H]2CN(c3ccnc(N4CCNCC4)c3)CCN21 [Example 32, 5-[(4R,9aS)-4-methyl-8-(2-piperazin-1-yl-4-pyridyl)-3,4,6,7,9,9a-hexahydro-1H-pyrazino[1,2-a]pyrazin-2-yl]quinoline-8-carbonitrile]
10	8	C[C@@H]1CN(c2ccc(C#N)c3ncccc23)C[C@@H]2CN(c3ccnc(N4CCNCC4)n3)CCN21 [Example 33, 5-[(4R,9aR)-4-methyl-8-(2-piperazin-1-ylpyrimidin-4-yl)-3,4,6,7,9,9a-hexahydro-1H-pyrazino[1,2-a]pyrazin-2-yl]quinoline-8-carbonitrile]
20	14	C[C@@H]1CN(c2ccc(C#N)c3ncccc23)C[C@@H]2CN(c3cc(N4CCNCC4)ccn3)CCN21 [Example 34, 5-[(4R,9aR)-4-methyl-8-(4-piperazin-1-yl-2-pyridyl)-3,4,6,7,9,9a-hexahydro-1H-pyrazino[1,2-a]pyrazin-2-yl]quinoline-8-carbonitrile]
29	8	N#Cc1ccc(N2CCN3CCN(c4cccc5c4CNC5)CC3C2)c2cccnc12 (stereo not drawn) [Example 35, 5-(8-isoindolin-4-yl-3,4,6,7,9,9a-hexahydro-1H-pyrazino[1,2-a]pyrazin-2-yl)quinoline-8-carbonitrile]
13	15	CO[C@@H]1CN(c2nccc(N3CCN4[C@@H](C3)CN(c3ccc(C#N)c5ncccc35)C[C@H]4C)n2)C[C@H]1N [Example 36, 5-[(4R,9aR)-8-[2-[(3R,4R)-3-amino-4-methoxy-pyrrolidin-1-yl]pyrimidin-4-yl]-4-methyl-3,4,6,7,9,9a-hexahydro-1H-pyrazino[1,2-a]pyrazin-2-yl]quinoline-8-carbonitrile]
21	26	CO[C@@H]1CN(c2ccnc(N3CCN4[C@@H](C3)CN(c3ccc(C#N)c5ncccc35)C[C@H]4C)n2)C[C@H]1N [Example 37, 5-[(4R,9aR)-8-[4-[(3R,4R)-3-amino-4-methoxy-pyrrolidin-1-yl]pyrimidin-2-yl]-4-methyl-3,4,6,7,9,9a-hexahydro-1H-pyrazino[1,2-a]pyrazin-2-yl]quinoline-8-carbonitrile]
2	8	Cc1cc(N2CCNCC2)ncc1N1CCN2CCN(c3ccc(C#N)c4ncccc34)CC2C1 (stereo not drawn) [Example 38, 5-[2-(4-methyl-6-piperazin-1-yl-3-pyridyl)-3,4,6,7,9,9a-hexahydro-1H-pyrazino[1,2-a]pyrazin-8-yl]quinoline-8-carbonitrile]

Reference: US20220340597A1, “HEXAHYDRO-1H-PYRAZINO[1,2-A]PYRAZINE COMPOUNDS FOR THE TREATMENT OF AUTOIMMUNE DISEASE” (Hoffmann-La Roche Inc., priority 2019, published 2022)
